Experiments:
[1] = design: method as in PMID 27349679; settings: mice; cited from earlier work
[2] = design: method as in PMID 25757886; settings: ex vivo human skin; cited from earlier work
[3] = design: method as in PMID 21622627; settings: liver microsomes human, dog and rat; cited from earlier work
[4] = system: CCF-STTG1 cells; test: CCK-8 viability assay in CCF-STTG1; type: cell-based, human; settings: for concentration with highly significant cytotoxic effects / IC50: CCF-STTG1, 48 h; for IC50: Homo sapiens, CCK-8, read-out: IC50 (cellular viability)
Protocol: To test the viability and to define the working range for later transport studies ENN B/ENN B1 stock solutions in ACN were diluted to the respective concentrations with serum free culture medium (1% ACN). An astrocytoma cell line, CCF-STTG1 (ATCC, Manassas, USA), and HBMEC cell line (human brain microvascular endothelial cells, kindly provided by Prof. Dr. Karch, Institute of Hygiene, University of Muenster (WWU Muenster)) were cultivated in RPMI 1640 medium supplemented with 100 U/mL penicillin, 100 μg/mL streptomycin, 2 mM L-glutamine and 10% (v/v) fetal calf serum (FCS) (medium for HBMEC additionally supplemented with 1 mM Na-pyruvate) using standardized culture conditions (37°C, 5% CO2, saturated humidified atmosphere). Culture medium was changed every 2–3 d, and the cells were subcultivated after trypsination when they reached a microscopic confluence of approximately 80%. For the evaluation of cytotoxic effects of ENN B and B1 in CCF-STTG1 and HBMEC, Cell Counting Kit-8 (CCK-8, Dojindo Laboratories, Tokyo Japan) was applied. The assay was performed according to the manufacturer’s instructions with slight modifications.
Briefly, the cells were seeded in 96-well tissue culture plates in a density of 1 × 10^4 cells/well (CCF-STTG1) and 4 × 10^3 cells/well (HBMEC), respectively. The cells were allowed to grow for 24 h, then the culture medium was replaced by serum free medium (100 μL/well), and the cells were cultivated for another 24 h (37°C, 5% CO2, saturated humidified atmosphere) before treatment. The cells were treated with ENN B and ENN B1 in a concentration range from 0.1 μM to 10 μM and were incubated for 48 h. After toxin exposure, the toxin solution was exchanged with a dye solution WST-8 (CCK-8 solution, water soluble tetrazolium salt-8, 2-(2-methoxy-4-nitrophenyl)-3-)4-nitrophenyl)-5-(2,4-disulfophenyl)-2H-tetrazolium monosodium salt), 1:10 diluted with fresh serum free medium, which was added to the cells followed by incubation for 60 min at 37°C. WST-8 dye is reduced to a water-soluble formazan by cellular dehydrogenases of viable cells, which increases the absorbance at λ = 457 nm and was measured with an Infinite M200 PRO microplate reader with Tecan i-control software version 1.7.1.12 (Tecan, Crailsheim, Germany). The amount of formazan generated by the activity of dehydrogenases in cells is directly proportional to the number of viable cells per well. The results are normalized to a solvent treated negative control (1% ACN).

[5] = design: method as in PMID 24239892; settings: pigs, cited from earlier work
[6] = system: PBCEC monolayer; test: Transfer across PBCEC monolayer on Transwell filters (BBB model); type: in vitro ADME, porcine

Question: For `CC(C)[C@H]1C(=O)O[C@H](C(C)C)C(=O)N(C)[C@@H](C(C)C)C(=O)O[C@H](C(C)C)C(=O)N(C)[C@@H](C(C)C)C(=O)O[C@H](C(C)C)C(=O)N1C` [ENN B, enniatin B], which “brain tissue distribution in the parenchyma” value [1] is on record?
Answer: 95%

Question: And the “remaining in the capillaries” value [1]?
Answer: 5%

Question: And the “permeation kp,v” value [2]?
Answer: 0.00262 ×10⁻⁶ cm/s

Question: What about the metabolites formed [3] of the same compound?
Answer: several phase I metabolites

Question: And the “concentration with highly significant cytotoxic effects” value [4]?
Answer: ≥ 5 µM

Question: And the IC50 [4]?
Answer: 8.9 µM

Question: Which results are given for `CC[C@H](C)[C@H]1C(=O)O[C@H](C(C)C)C(=O)N(C)[C@@H](C(C)C)C(=O)O[C@H](C(C)C)C(=O)N(C)[C@@H](C(C)C)C(=O)O[C@H](C(C)C)C(=O)N1C` [ENN B1, enniatin B1]?
Answer: brain tissue distribution in the parenchyma [1]: 95%; remaining in the capillaries [1]: 5%; Tmax ([5]; oral): 14.4 min; ka ([5]; oral): 4.66 h⁻¹; oral bioavailability [5]: up to 91%; effect on viability ([4]; CCF-STTG1, 0.1 μM and 1 μM, 48 h): weak but significant effects; concentration with highly significant cytotoxic effects [4]: ≥ 2.5 µM; IC50 [4]: 4.4 µM; metabolites by high resolution mass spectrometry screening [6]: no metabolites were detected
